# In patent publication US11753407B2, “Compounds for treating spinal muscular atrophy” (PTC Therapeutics, Inc., priority 2012, dated 2023):
# What was measured:
# [1] = system: Smn protein in SMA patient fibroblast cells (GM03813); assay: Smn protein assay in cultured cells (SMN HTRF); type: cell-based, human; settings: SMA patient fibroblast cells, 48 hours; for maximum fold (Fold) increase of Smn protein: 7-point concentration data, fold relative to vehicle control; for EC1.5x for Smn protein expression: 7-point concentration curve, SMN HTRF, concentration producing 1.5 times Smn protein vs DMSO vehicle control
# Method in brief: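 Patient-derived SMA fibroblasts are plated, given compound for 48 h, then lysed in RIPA buffer with protease inhibitors. Lysate Smn is detected by an anti-SMN d2/kryptate HTRF pair incubated overnight. The normalized ΔF is divided by the vehicle ΔF to give fold change, from which EC1.5× and maximum fold are taken.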
# [2] = system: SMN2 minigene mRNA (SMN2-A minigene) in HEK293H cells; assay: SMN2 minigene mRNA splicing RT-qPCR assay in cultured cells; type: cell-based, human; settings: Homo sapiens, HEK293-H; concentration increasing full length SMN2 mRNA 1.5-fold relative to vehicle-treated cells; HEK293H cells with SMN2-A minigene, 24 hours, 7-point concentration data; read-out: EC1.5x for production of full length SMN2 mRNA
# Method in brief: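 Cells are seeded, left to attach 4-6 h, then dosed with test compound across seven concentrations and incubated 24 h. Lysates undergo RT-qPCR with primers/probe specific to the exon 7-containing minigene transcript, co-amplified with GAPDH. Fold change over vehicle is calculated, and EC1.5× marks the 1.5-fold point.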
SMILES,melting point [°C],maximum fold (Fold) increase of Smn protein [1],EC (1.5-fold increase) [2] [µM],EC1.5x for Smn protein expression [1]
"COc1ccc(-c2cc(=O)n3cc(N4CCNCC4)ccc3n2)cc1C#N [Compound 151, 2-methoxy-5-[4-oxo-7-(piperazin-1-yl)-4H-pyrido[1,2-a]pyrimidin-2-yl]benzonitrile]",191 to 197,*** (a fold increase between >1.35 and ≤1.5 is indicated by three stars (***)),0.1 to 0.3,–
"Cc1nc2cc(-c3cc(=O)n4cc(N5CCNCC5)ccc4n3)ccc2o1 [Compound 155, 2-(2-methyl-1,3-benzoxazol-5-yl)-7-(piperazin-1-yl)-4H-pyrido[1,2-a]pyrimidin-4-one]",178 to 183,** (a fold increase between >1.2 and ≤1.35 is indicated by two stars (**)),0.1 to 0.3,–
"Cc1ccc(-c2cc(=O)n3cc(N4CCN[C@@H](C)C4)ccc3n2)cc1F [Compound 158, 2-(3-fluoro-4-methylphenyl)-7-[(3S)-3-methylpiperazin-1-yl]-4H-pyrido[1,2-a]pyrimidin-4-one]",175 to 178,* (A maximum fold increase of ≤1.2 is indicated by one star (*)),1 to 3,–
"COc1ccc(-c2cc(=O)n3cc(N4CC[C@H](N)C4)ccc3n2)cc1OC [Compound 159, 7-[(3S)-3-aminopyrrolidin-1-yl]-2-(3,4-dimethoxyphenyl)-4H-pyrido[1,2-a]pyrimidin-4-one]",148 to 151,*** (a fold increase between >1.35 and ≤1.5 is indicated by three stars (***)),1 to 3,–
"Cc1nc2cc(-c3cc(=O)n4cc(N5CCCNCC5)ccc4n3)ccc2s1 [Compound 161, 7-(1,4-diazepan-1-yl)-2-(2-methyl-1,3-benzothiazol-5-yl)-4H-pyrido[1,2-a]pyrimidin-4-one]",208 to 212,*** (a fold increase between >1.35 and ≤1.5 is indicated by three stars (***)),0.3 to 1,** (an EC1.5× between >1 μM and ≤3 μM is indicated by two stars (**))
"Cc1csc(-c2cc(=O)n3cc(N4CCN[C@@H](C)C4)ccc3n2)n1 [Compound 162, 7-[(3S)-3-methylpiperazin-1-yl]-2-(4-methyl-1,3-thiazol-2-yl)-4H-pyrido[1,2-a]pyrimidin-4-one]",225 to 230,**** (a fold increase between >1.5 and ≤1.65 is indicated by four stars (****)),0.3 to 1,** (an EC1.5× between >1 μM and ≤3 μM is indicated by two stars (**))
"COc1ccc(-c2cc(=O)n3cc(N4CC[C@H](NC(C)C)C4)ccc3n2)cc1OC [Compound 165, 2-(3,4-dimethoxyphenyl)-7-[(3S)-3-(propan-2-ylamino)pyrrolidin-1-yl]-4H-pyrido[1,2-a]pyrimidin-4-one]",169 to 172,** (a fold increase between >1.2 and ≤1.35 is indicated by two stars (**)),1 to 3,–
"COc1ccc(-c2cc(=O)n3cc(N4CCCN(C)CC4)ccc3n2)cc1F [Compound 166, 2-(3-fluoro-4-methoxyphenyl)-7-(4-methyl-1,4-diazepan-1-yl)-4H-pyrido[1,2-a]pyrimidin-4-one]",176 to 178,** (a fold increase between >1.2 and ≤1.35 is indicated by two stars (**)),0.3 to 1,–
"COc1ccc(-c2cc(=O)n3cc(N4CCNCC4)ccc3n2)cc1[N+](=O)[O-] [Compound 167, 2-(4-methoxy-3-nitrophenyl)-7-(piperazin-1-yl)-4H-pyrido[1,2-a]pyrimidin-4-one]",183 to 187,*** (a fold increase between >1.35 and ≤1.5 is indicated by three stars (***)),< 0.1,** (an EC1.5× between >1 μM and ≤3 μM is indicated by two stars (**))
"Cc1cn2cc(-c3cc(=O)n4cc(N5CCCN(C)CC5)ccc4n3)ccc2n1 [Compound 169, 7-(4-methyl-1,4-diazepan-1-yl)-2-(2-methylimidazo[1,2-a]pyridin-6-yl)-4H-pyrido[1,2-a]pyrimidin-4-one]",208 to 213,**** (a fold increase between >1.5 and ≤1.65 is indicated by four stars (****)),< 0.1,**** (an EC1.5x≤0.3 μM is indicated by four stars (****))
"Cc1nc2ccc(-c3cc(=O)n4cc(N5C[C@@H](C)N[C@@H](C)C5)ccc4n3)cc2o1 [Compound 172, 7-[(3R,5S)-3,5-dimethylpiperazin-1-yl]-2-(2-methyl-1,3-benzoxazol-6-yl)-4H-pyrido[1,2-a]pyrimidin-4-one]",233 to 235,***** (a fold increase >1.65 is indicated by five stars (*****)),< 0.1,**** (an EC1.5x≤0.3 μM is indicated by four stars (****))
"COc1ncc(-c2cc(=O)n3cc(N4CCN[C@@H](C)C4)ccc3n2)cc1F [Compound 173, 2-(5-fluoro-6-methoxypyridin-3-yl)-7-[(3S)-3-methylpiperazin-1-yl]-4H-pyrido[1,2-a]pyrimidin-4-one]",175 to 180,** (a fold increase between >1.2 and ≤1.35 is indicated by two stars (**)),0.3 to 1,–
"COc1ncc(-c2cc(=O)n3cc(N4C[C@@H](C)N[C@@H](C)C4)ccc3n2)cc1F [Compound 174, 7-[(3R,5S)-3,5-dimethylpiperazin-1-yl]-2-(5-fluoro-6-methoxypyridin-3-yl)-4H-pyrido[1,2-a]pyrimidin-4-one]",160 to 165,** (a fold increase between >1.2 and ≤1.35 is indicated by two stars (**)),1 to 3,–
"Cc1nc2cc(-c3cc(=O)n4cc(N5C[C@@H](C)N[C@@H](C)C5)ccc4n3)ccc2s1 [Compound 175, 7-[(3R,5S)-3,5-dimethylpiperazin-1-yl]-2-(2-methyl-1,3-benzothiazol-5-yl)-4H-pyrido[1,2-a]pyrimidin-4-one]",208 to 212,**** (a fold increase between >1.5 and ≤1.65 is indicated by four stars (****)),< 0.1,*** (an EC1.5× between >0.3 μM and ≤1 μM is indicated by three stars (***))

# Continued, in another order:
melting point [°C],SMILES,maximum fold (Fold) increase of Smn protein [1],EC (1.5-fold increase) [2] [µM],EC1.5x for Smn protein expression [1]
198 to 203,"COc1ccc(-c2cc(=O)n3cc(N4CCNCC4)ccc3n2)cc1C [Compound 149, 2-(4-methoxy-3-methylphenyl)-7-(piperazin-1-yl)-4H-pyrido[1,2-a]pyrimidin-4-one]",** (a fold increase between >1.2 and ≤1.35 is indicated by two stars (**)),0.3 to 1,–
224 to 231,"N#Cc1cccc(-c2cc(=O)n3cc(N4CCNCC4)ccc3n2)c1 [Compound 150, 3-[4-oxo-7-(piperazin-1-yl)-4H-pyrido[1,2-a]pyrimidin-2-yl]benzonitrile]",**** (a fold increase between >1.5 and ≤1.65 is indicated by four stars (****)),0.3 to 1,** (an EC1.5× between >1 μM and ≤3 μM is indicated by two stars (**))
259 to 266,"O=c1cc(-c2ccc(O)c(F)c2)nc2ccc(N3CCNCC3)cn12 [Compound 152, 2-(3-fluoro-4-hydroxyphenyl)-7-(piperazin-1-yl)-4H-pyrido[1,2-a]pyrimidin-4-one]",***** (a fold increase >1.65 is indicated by five stars (*****)),0.1 to 0.3,**** (an EC1.5x≤0.3 μM is indicated by four stars (****))
198 to 201,"O=c1cc(-c2ccc(OCC(F)(F)F)c(F)c2)nc2ccc(N3CCNCC3)cn12 [Compound 154, 2-[3-fluoro-4-(2,2,2-trifluoroethoxy)phenyl]-7-(piperazin-1-yl)-4H-pyrido[1,2-a]pyrimidin-4-one]",* (A maximum fold increase of ≤1.2 is indicated by one star (*)),1 to 3,–
174 to 176,"Cc1ccc(-c2cc(=O)n3cc(N4CCNCC4)ccc3n2)cc1F [Compound 157, 2-(3-fluoro-4-methylphenyl)-7-(piperazin-1-yl)-4H-pyrido[1,2-a]pyrimidin-4-one]",** (a fold increase between >1.2 and ≤1.35 is indicated by two stars (**)),1 to 3,–
174 to 176,"CSc1ccc(-c2cc(=O)n3cc(N4CCNCC4)ccc3n2)cc1F [Compound 168, 2-[3-fluoro-4-(methylsulfanyl)phenyl]-7-(piperazin-1-yl)-4H-pyrido[1,2-a]pyrimidin-4-one]",* (A maximum fold increase of ≤1.2 is indicated by one star (*)),0.3 to 1,–
